# From US20210161999A1, “COMPOSITIONS AND METHODS RELATED TO OVERCOMING INNATE IMMUNE BARRIERS TO CANCER IMMUNOTHERAPY” (Health Research, Inc., priority 2018, published 2021)
# “Also recorded” adds a separate entry of the source. *1 amine or outer side, *2 acyl side, *3 side chain or, on linkers, in order; H or OH if unused. Where a SMILES comes first, the peptide text is derived from it. Bridges are numbered along the chain shown (N, C = ends). Roman numbers before positions name the chains, in order. [ ]: non-standard residue; d: D form. Actinocin(9to1) = Cc1c2oc3c(C)ccc(C(=O)[*:1])c3nc-2c(C(=O)[*:2])c(N)c1=O; NMeV = CN[C@H](C(=O)O)C(C)C; Sar = CNCC(=O)O
# B1: OmCI: peptide C5 inhibitor derived from the saliva of Ornithodoros moubata (protein, UniProt Q5YD59 19-168, looked up)
# Complement inhibitor: DSESDCTGSEPVDAFQAFSEGKEAYVLVRSTDPKARDCLKGEPAGEKQDNTLPVMMTFKNGTDWASTDWTFTLDGAKVTATLGNLTQNREVVYDSQSHHCHVDKVEKEVPDYEMWMLDAGGLEVEVECCRQKLEELASGRNQMYPHLKDC
# B2: DNase I: enzyme added to the cocultures to degrade NETs (protein, UniProt P24855 23-282, looked up)
# Deoxyribonuclease-1: LKIAAFNIQTFGETKMSNATLVSYIVQILSRYDIALVQEVRDSHLTAVGKLLDNLNQDAPDTYHYVVSEPLGRNSYKERYLFVYRPDQVSAVDSYYYDDGCEPCGNDTFNREPAIVRFFSRFTEVREFAIVPLHAAPGDAVAEIDALYDVYLDVQEKWGLEDVMLMGDFNAGCSYVRPSQWSSIRLWTSPTFQWLIPDSADTTATPTHCAYDRIVVAGMLLRGAVVPDSALPFNFQAAYGLSDQLAQAISDHYPVEVMLK
# Test system: PMN suppressor phenotype (suppression of anti-CD3/CD28-stimulated T cell proliferation)
# Assay: Coculture of PMN with ascites supernatants and anti-CD3/CD28-stimulated T cells; T cell proliferation by [3H] thymidine incorporation
# Assay type: cell-based, human
# Settings: for effect on ascites-induced PMN-mediated suppression: L-arginine 50 μM-1 mM, NAC 10-25 mM, DNase I 50-100 IU (n=3)
# Protocol: Freshly isolated T cells (1e5) were stimulated with anti-CD3/CD28 Dynabeads (2.5 μl; Thermo Fisher Scientific) and cocultured with autologous PMN (1:1) and ascites supernatants (50% final well volume) in an incubator at 37° C., 5% CO2. After 72 h, [^3H] thymidine (1 μCi per well) was added and allowed to incorporate for 16-18 h. Cells were harvested onto a Filtermat and counted on a Beta counter. Results are expressed as net cpm [calculated by subtracting the average cpm of unstimulated T cells from the average cpm of stimulated T cells].
# Where indicated, T cells, PMN, and ascites supernatants underwent various pretreatments. Where indicated, T cells were pretreated for lh with neutralizing antibody against ICAM-I (1-10 μg), IgG1 isotype (1-10 μg), or media (RPMI 1640, 5-10% heat-inactivated FBS, HEPES, sodium pyruvate, non-essential amino acids, and penicillin-streptomycin).
# Where indicated, PMN were pretreated for lh with neutralizing antibody against CD11b (1-10 μg), TGF-beta receptor 1 (1-10 μg) or IgG1 isotype (1-10 μg); thapsigargin (THG, 0.5-2 μM), diphenyleneiodonium (DPI, 1-25 μM), N-Formylmethionine-leucyl-phenylalanine (fMLF, 1-100 nM), brefeldin-A (1-10 μg/mL), ER export inhibitor 1 (Exol, 20-75 μM), CI-amidine (10-20 μM), SNARE decoys: TAT-SNAP23 (0.6-0.9 μg/mL), TAT-SYN4 (0.6-0.9 μg/mL), TAT-GST (0.6-0.9 μg/mL) (produced as described in the laboratory of Dr. Kenneth McLeish), puromycin and actinomycin-D (1-5 μg/mL), or with media.
# Where indicated, ascites supernatants were pretreated with heat (56° C., lh) to denature heat-labile constituents or proteinase-K (100 μM, 37° C., 12 h) to degrade proteins. Two formulations of compstatin, a peptide C3 inhibitor, were used: CS (250 μM, 30° C., 2 h, Tocris) and Cp40 (1.25-20 μM, 30° C., 2 h), as well as a scramble peptide. In separate studies, ascites supernatants were ultra-centrifuged (100,000g, 4° C., 1.5 h) to separate the membrane-rich (MR-ASC) and membrane-depleted (MD-ASC) fractions. In others, ascites supernatants were pretreated for lh with neutralizing antibody against C5 (0.5-1.0 μg, A217; Quidel, San Diego, Calif.) or C7 (0.5-1.0 μg, A221; Quidel) or IgG1 isotype (0.5-1.0 μg), or with OmCI (0.6-1.2 μM), a peptide C5 inhibitor derived from the saliva of Ornithodoros moubata (35, 36).
# [1] = PMN pretreated, brefeldin-A 1-10 μg/mL, Exo1 20-75 μM (n=3)
# [2] = PMN pretreated for 1 h prior to coculture, puromycin 1 μg, D-actinomycin 1 μg (n=8)
# [3] = added to cocultures, indomethacin 10 μM, zileuton 50 μM, 1-MT 100 μM
# [4] = PMN pretreated, fMLF 100 nM, THG 1 μM, DPI 1 μM (n=7)
molecule,measurement,setting,value
C[C@H]1CCC/C=C/[C@@H]2C[C@H](O)C[C@H]2[C@H](O)/C=C/C(=O)O1 [brefeldin-A],effect on PMN suppressor phenotype,[1],abrogated the PMN suppressor phenotype
"Cc1c2oc3c(C)ccc(C(=O)N[C@@H]4C(=O)N[C@H](C(C)C)C(=O)N5CCC[C@H]5C(=O)N(C)CC(=O)N(C)[C@@H](C(C)C)C(=O)O[C@@H]4C)c3nc-2c(C(=O)N[C@@H]2C(=O)N[C@H](C(C)C)C(=O)N3CCC[C@H]3C(=O)N(C)CC(=O)N(C)[C@@H](C(C)C)C(=O)O[C@@H]2C)c(N)c1=O [actinomycin D] (I: T[dV]P[Sar][NMeV] / II: T[dV]P[Sar][NMeV]; ester I:1-I:C, II:1-II:C; linker I:N-II:N via Actinocin(9to1))",effect on PMN suppressor phenotype,[2],variable abrogation of the suppressor phenotype
same,effect on PMN suppressor phenotype,"PMN pretreated for 1 h prior to coculture, puromycin 1 μg, D-actinomycin 1 μg (n=8), listed as D-actinomycin",had more variable effects
CC(c1cc2ccccc2s1)N(O)C(N)=O (stereo not shown) [zileuton],effect on PMN suppressor phenotype,[3],did not reverse the phenotype; also recorded: had no effect on the PMN suppressor phenotype
N=C(N)NCCC[C@H](N)C(=O)O [L-arginine],effect on ascites-induced PMN-mediated suppression,added to cocultures,did not reverse ascites-induced PMN-mediated suppression; also recorded: had no effect on T cell suppression
"CC[C@H](C)[C@H](N)C(=O)N[C@H]1CSSC[C@@H](C(=O)N[C@H](C(N)=O)[C@@H](C)O)NC(=O)[C@H](CCCN=C(N)N)NC(=O)[C@H](Cc2cnc[nH]2)NC(=O)[C@H](Cc2cnc[nH]2)NC(=O)CNC(=O)[C@H](Cc2c[nH]c3ccccc23)NC(=O)[C@H](CC(=O)O)NC(=O)[C@H](CCC(N)=O)NC(=O)[C@H](C(C)C)NC(=O)[C@H](C(C)C)NC1=O [CS, compstatin]",effect on PMN suppressor phenotype,"added to ASC 2 h prior to coculture with PMN and T cells, CS 250 μM, Cp40 20 μM, scramble peptide 20 μM",abrogated the PMN suppressor phenotype
same,effect on PMN suppressor phenotype,"added to ASC 2 h prior to coculture with PMN and T cells, CS 250 μM, Cp40 20 μM, scramble peptide 20 μM, listed as compstatin",completely abrogated the PMN suppressor phenotype
COc1ccc2c(c1)c(CC(=O)O)c(C)n2C(=O)c1ccc(Cl)cc1 [indomethacin],effect on PMN suppressor phenotype,[3],had no effect on the PMN suppressor phenotype
same,effect on PMN suppressor phenotype,"added to cocultures, indomethacin 10 μM, zileuton 50 μM, 1-MT 100 μM, listed as Indomethacin",did not reverse the phenotype
COc1ccc(C[C@H](N)C(=O)N[C@H]2[C@@H](O)[C@H](n3cnc4c(N(C)C)ncnc43)O[C@@H]2CO)cc1 [puromycin],effect on PMN suppressor phenotype,[2],abrogated the PMN suppressor phenotype; also recorded: variable abrogation of the suppressor phenotype
C/C=C(/C)C(=O)O[C@H]1C(C)=C2[C@H]([C@@H]1OC(=O)CCCCCCC)[C@@](C)(OC(C)=O)C[C@H](OC(=O)CCC)[C@@]1(O)[C@H]2OC(=O)[C@@]1(C)O [thapsigargin],effect on PMN suppressor phenotype,[4],abrogated the PMN suppressor phenotype
NC(=O)[C@H](CCCN=C(N)CCl)NC(=O)c1ccccc1 [CI-amidine],effect on PMN suppressor phenotype,PMN pretreated with CI-amidine (10-20 μM) for 1 h prior to coculture (n=3),did not abrogate the PMN suppressor phenotype; also recorded: had no effect on the PMN suppressor phenotype
COC(=O)c1ccccc1NC(=O)c1ccc(F)cc1 [ER export inhibitor 1],effect on PMN suppressor phenotype,[1],abrogated the suppressor phenotype
same,effect on PMN suppressor phenotype,"PMN pretreated, brefeldin-A 1-10 μg/mL, Exo1 20-75 μM (n=3), listed as Exo1",abrogated the PMN suppressor phenotype
N-Formylmethionine-leucyl-phenylalanine [fMLF],effect on PMN suppressor phenotype,[4],abrogated the PMN suppressor phenotype; also recorded: prevented induction of the PMN suppressor phenotype
CC(=O)N[C@@H](CS)C(=O)O [N-acetylcysteine],effect on ascites-induced PMN-mediated suppression,added to cocultures,did not reverse ascites-induced PMN-mediated suppression
same,effect on ascites-induced PMN-mediated suppression,"added to cocultures, listed as NAC",did not reverse suppression
c1ccc2c(c1)[I+]c1ccccc1-2 [diphenyleneiodonium],effect on PMN suppressor phenotype,[4],abrogated the PMN suppressor phenotype
same,effect on PMN suppressor phenotype,"PMN pretreated, fMLF 100 nM, THG 1 μM, DPI 1 μM (n=7), listed as DPI",did abrogate the PMN suppressor phenotype
Cn1cc(CC(N)C(=O)O)c2ccccc21 (racemic) [1-methyl-DL-tryptophan],effect on PMN suppressor phenotype,[3],did not reverse the phenotype; also recorded: had no effect on the PMN suppressor phenotype
B1,effect on PMN suppressor phenotype,ASC pretreated 1 h with neutralizing Ab against C5 or C7 (0.5-1.0 μg) or OmCI (0.6-1.2 μM) prior to coculture,partially abrogated the PMN suppressor phenotype; also recorded: had a partial abrogating effect on T cell suppression
B2,effect on ascites-induced PMN-mediated suppression,added to cocultures,did not reverse ascites-induced PMN-mediated suppression; also recorded: had no effect on the PMN suppressor phenotype
